PMC3574231 (ACS chemical biology, 2012)

Assays:
[1] = Reversed-phase HPLC retention; type: physicochemical; conditions: chromatographic, C-18 column

| Substance | Retention time by reversed-phase HPLC (measure of overall hydrophobicity) [1] | Intracellular CAP fluorescence after pretreatment with 1 mM sodium pervanadate (MCF-7 and HEK293 cells) |
| --- | --- | --- |
| cyclo(FΦRRRRQ) [Peptide 11] | virtually identical retention times | – |
| cyclo[(pCAP)FΦRRRRQ] (head to tail) [cyclic pCAP] | – | dramatically reduced |
